We go through nine compounds from US9260429B2, “Pyrido[3,4-B]indoles and methods of use” (Medivation Technologies, Inc., priority 2008, dated 2016).

In experiment [1] the target is T1, human recombinant histamine H1 receptor (Homo sapiens, UniProt P35367).
T1 construct: expressed in transfected cells; host or cells: CHO cells
As to the kind of experiment: Histamine H1 radioligand binding ([3H]Pyrilamine). As to conditions: 1 μM; read-out: Binding data (Percentage Inhibition) Histamine Binding (1 μM) H1. How it is done:
To evaluate in radioligand binding assays the activity of compounds of the invention, human recombinant histamine H1 receptor expressed in Chinese hamster ovary (CHO) cells (De Backer, M. D. et al., Biochem. Biophys. Res. Comm. 197(3):1601, 1993) in a modified Tris-HCl buffer (50 mM Tris-HCl, pH 7.4, 2 mM MgCl2, 100 mM NaCl, 250 mM Sucrose) was used. Compounds of the invention were incubated with 1.2 nM [^3H]Pyrilamine for 180 minutes at 25° C. Non-specific binding was estimated in the presence of 1 μM pyrilamine. Receptor proteins were filtered and washed, the filters were then counted to determine [^3H]Pyrilamine specifically bound. […] Biochemical assay results are presented as the percent inhibition of specific binding in Table 3.

The target in experiment [2] is T2, human recombinant serotonin (5-Hydroxytryptamine) 5-HT7 receptor (Homo sapiens, UniProt P34969).
T2 construct: expressed in transfected cells; host or cells: CHO cells
As to the kind of experiment: Serotonin 5-HT7 radioligand binding ([3H]LSD). As to conditions: 2 h; read-out: Percent Inhibition of ligand binding Serotonin (1 μM ligand concentration) 5-HT7. The procedure: To evaluate in radioligand binding assays the activity of compounds of the invention, human recombinant serotonin (5-Hydroxytryptamine) 5-HT7 receptor expressed in Chinese hamster ovary (CHO) cells (Roth, B. L. et al., J. Pharmacol. Exp. Ther. 268:1403, 1994; Shen, Y. et al., J. Biol. Chem. 268:18200, 1993) in a modified Tris-HCl buffer (50 mM Tris-HCl, pH 7.4, 10 mM MgCl2, 0.5 mM EDTA) was used. Compounds of invention were incubated with 5.5 nM [^3H]Lysergic acid diethylamide (LSD) for 2 hours at 25° C. Non-specific binding was estimated in the presence of […] Serotonin (5-HT). Receptor proteins were filtered and washed, the filters were then counted to determine [^3H]LSD specifically bound. Compounds were screened at 1 μM or lower, using 1% DMSO as vehicle. Biochemical assay results are presented as the percent inhibition of specific binding in Table 5.

Experiment [3] has as its target T3, human recombinant serotonin (5-Hydroxytryptamine) 5-HT2C receptor (Homo sapiens, UniProt P28335).
T3 construct: expressed in transfected cells; host or cells: CHO-K1 cells
T3 sequence (P28335 33-458): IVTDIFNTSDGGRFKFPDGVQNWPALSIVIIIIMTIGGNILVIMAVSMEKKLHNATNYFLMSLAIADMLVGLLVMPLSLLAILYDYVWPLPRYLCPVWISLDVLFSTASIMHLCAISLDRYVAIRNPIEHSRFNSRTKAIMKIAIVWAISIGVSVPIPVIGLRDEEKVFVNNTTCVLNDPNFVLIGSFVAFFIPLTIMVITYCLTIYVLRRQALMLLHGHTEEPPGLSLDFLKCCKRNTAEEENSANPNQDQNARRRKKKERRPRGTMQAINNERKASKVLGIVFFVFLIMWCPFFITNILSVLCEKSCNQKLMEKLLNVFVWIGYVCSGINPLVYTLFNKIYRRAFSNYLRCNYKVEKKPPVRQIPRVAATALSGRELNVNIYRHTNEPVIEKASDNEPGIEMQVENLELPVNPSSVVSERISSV
As to the kind of experiment: Serotonin 5-HT2C radioligand binding ([3H]Mesulergine). As to conditions: 1 h; read-out: Percent Inhibition of ligand binding Serotonin (1 μM ligand concentration) 5-HT2C. How it is done: Compounds of the invention were incubated with 1 nM [^3H]Mesulergine for 60 minutes at 25° C. Non-specific binding was estimated in the presence of 1 μM Mianserin. Receptor proteins were filtered and washed, the filters were then counted to determine [^3H]Mesulergine specifically bound. […] Biochemical assay results are presented as the percent inhibition of specific binding in Table 5.

Experiment [4] has as its target T4, human recombinant histamine H2 receptor (Homo sapiens, UniProt P25021).
T4 construct: expressed in transfected cells; host or cells: CHO-K1 cells
Put plainly: Histamine H2 radioligand binding ([125I]Aminopotentidine). As to conditions: 1 μM; inhibition of specific [125I]Aminopotentidine binding; read-out: Binding data (Percentage Inhibition) Histamine Binding (1 μM) H2. How it is done:
To evaluate in radioligand binding assays the activity of compounds of the invention, human recombinant histamine H2 receptor expressed in Chinese hamster ovary (CHO) K1 cells (Ruat, M., Proc. Natl. Acad. Sci. USA. 87(5):1658, 1990) in a 50 mM Phosphate buffer, pH 7.4 was used. Compounds of the invention were incubated with 0.1 nM [^125I]Aminopotentidine for 120 minutes at 25° C. Non-specific binding was estimated in the presence of 3 μM Tiotidine. Receptor proteins were filtered and washed, the filters were then counted to determine [^125I]Aminopotentidine specifically bound. Compounds were screened at 1 μM or lower, using 1% DMSO as vehicle. Biochemical assay results are presented as the percent inhibition of specific binding in Table 3.

Experiment [5] deals with T5, human recombinant dopamine D2L receptor (Homo sapiens, UniProt P14416).
T5 construct: expressed in transfected cells; host or cells: CHO cells
As to the kind of experiment: Dopamine D2L radioligand binding ([3H]Spiperone). Particulars: 2 h, 1 μM ligand conc.; read-out: Percent Inhibition of ligand binding Dopamine (1 μM ligand conc.) D2L. The procedure: To evaluate in radioligand binding assays the activity of compounds of the invention, human recombinant dopamine D2L receptor expressed in Chinese hamster ovary (CHO) cells (Grandy, D. K. et al. Proc. Natl. Acad. Sci. USA. 86:9762, 1989; Hayes, G. et al., Mol. Endocrinol. 6:920, 1992) in a modified Tris-HCl buffer (50 mM Tris-HCl, pH 7.4, 1.4 mM Ascorbic Acid, 0.001% BSA, 150 mM NaCl) was used. Compounds of the invention were incubated with 0.16 nM [^3H]Spiperone for 120 minutes at 25° C. Non-specific binding was estimated in the presence of […] Haloperidol. Receptor proteins were filtered and washed, the filters were then counted to determine [^3H]Spiperone specifically bound. Compounds were screened at 1 μM or lower, using 1% DMSO as vehicle. Biochemical assay results are presented as the percent inhibition of specific binding in Table 4.

Experiment [6] has as its target T6, human recombinant serotonin (5-Hydroxytryptamine) 5-HT6 receptor (Homo sapiens, UniProt P50406).
T6 construct: expressed in transfected cells; host or cells: human HeLa cells
As to the kind of experiment: Serotonin 5-HT6 radioligand binding ([3H]LSD). As to conditions: 2 h; read-out: Percent Inhibition of ligand binding Serotonin (1 μM ligand concentration) 5-HT6. How it is done: To evaluate in radioligand binding assays the activity of compounds of the invention, human recombinant serotonin (5-Hydroxytryptamine) 5-HT6 receptor expressed in human HeLa cells (Monsma, F. J. Jr. et al., Mol. Pharmacol. 43:320, 1993) in a modified Tris-HCl buffer (50 mM Tris-HCl, pH 7.4, 150 mM NaCl, 2 mM Ascorbic Acid, 0.001% BSA) was used. Compounds of the invention were incubated with 1.5 nM [3H]Lysergic acid diethylamide (LSD) for 120 minutes at 37° C. Non-specific binding was estimated in the presence of […] Serotonin (5-HT). Receptor proteins were filtered and washed, the filters were then counted to determine [3H]LSD specifically bound. Compounds were screened at 1 μM or lower, using 1% DMSO as vehicle. Biochemical assay results are presented as the percent inhibition of specific binding in Table 5.

For experiment [7], the target named is T7, human recombinant serotonin (5-Hydroxytryptamine) 5-HT2A receptor (Homo sapiens, UniProt P28223).
T7 construct: expressed in transfected cells; host or cells: CHO-K1 cells
Put plainly: Serotonin 5-HT2A radioligand binding ([3H]Ketanserin). As to conditions: 1 h; read-out: Percent Inhibition of ligand binding Serotonin (1 μM ligand concentration) 5-HT2A. The procedure: To evaluate in radioligand binding assays the activity of compounds of the invention, human recombinant serotonin (5-Hydroxytryptamine) 5-HT2A receptor expressed in Chinese hamster ovary (CHO-K1) cells (Bonhaus, D. W. et al. Br. J. Pharmacol. 115:622, 1995; Saucier, C. and Albert, P. R., J. Neurochem. 68:1998, 1997) in a 50 mM Tris-HCl buffer, pH 7.4, was used. Compounds of the invention were incubated with 0.5 nM [^3H]Ketanserin for 60 minutes at 25° C. Non-specific binding was estimated in the presence of 1 μM Mianserin. Receptor proteins were filtered and washed, the filters were then counted to determine [^3H]Ketanserin specifically bound. Compounds were screened at 1 μM or lower, using 1% DMSO as vehicle. Biochemical assay results are presented as the percent inhibition of specific binding in Table 5.

T6 sequence (P50406 whole entry): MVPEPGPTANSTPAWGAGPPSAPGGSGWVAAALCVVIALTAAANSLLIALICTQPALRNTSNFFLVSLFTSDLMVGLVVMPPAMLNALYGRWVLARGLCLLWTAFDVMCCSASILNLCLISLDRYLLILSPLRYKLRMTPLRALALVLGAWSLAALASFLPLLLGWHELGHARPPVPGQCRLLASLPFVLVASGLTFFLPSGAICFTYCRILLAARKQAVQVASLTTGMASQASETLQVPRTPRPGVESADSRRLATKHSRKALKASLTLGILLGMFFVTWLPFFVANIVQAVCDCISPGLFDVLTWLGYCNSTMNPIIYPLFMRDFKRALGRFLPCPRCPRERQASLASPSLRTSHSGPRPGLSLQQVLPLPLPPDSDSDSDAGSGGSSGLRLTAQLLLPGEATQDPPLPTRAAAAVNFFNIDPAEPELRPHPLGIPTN
T7 sequence (P28223 whole entry): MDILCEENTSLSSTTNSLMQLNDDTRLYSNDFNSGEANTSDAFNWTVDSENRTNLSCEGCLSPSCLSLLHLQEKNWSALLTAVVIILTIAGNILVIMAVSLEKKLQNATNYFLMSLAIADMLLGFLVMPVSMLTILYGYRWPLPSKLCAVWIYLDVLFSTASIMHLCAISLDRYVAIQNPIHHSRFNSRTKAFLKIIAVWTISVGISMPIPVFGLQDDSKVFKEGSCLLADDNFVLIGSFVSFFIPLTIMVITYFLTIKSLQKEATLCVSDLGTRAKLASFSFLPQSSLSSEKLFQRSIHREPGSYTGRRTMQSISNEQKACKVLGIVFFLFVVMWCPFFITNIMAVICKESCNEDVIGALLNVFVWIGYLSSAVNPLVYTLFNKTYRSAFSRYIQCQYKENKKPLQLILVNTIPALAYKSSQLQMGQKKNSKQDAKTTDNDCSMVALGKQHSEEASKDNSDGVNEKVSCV
T1 sequence (P35367 whole entry): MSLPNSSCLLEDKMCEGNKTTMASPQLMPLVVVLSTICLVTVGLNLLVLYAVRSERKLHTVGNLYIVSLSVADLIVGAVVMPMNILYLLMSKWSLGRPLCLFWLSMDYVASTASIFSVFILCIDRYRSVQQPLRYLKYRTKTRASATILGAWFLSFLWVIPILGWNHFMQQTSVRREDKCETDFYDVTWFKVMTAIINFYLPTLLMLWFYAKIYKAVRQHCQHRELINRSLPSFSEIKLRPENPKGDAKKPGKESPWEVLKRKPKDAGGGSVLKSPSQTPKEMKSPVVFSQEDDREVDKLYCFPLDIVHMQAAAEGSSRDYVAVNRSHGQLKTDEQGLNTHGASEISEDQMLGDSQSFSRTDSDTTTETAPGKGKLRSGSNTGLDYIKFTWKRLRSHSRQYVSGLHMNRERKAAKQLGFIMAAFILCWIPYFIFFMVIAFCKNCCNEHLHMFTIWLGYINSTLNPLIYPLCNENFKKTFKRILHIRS
T4 sequence (P25021 whole entry): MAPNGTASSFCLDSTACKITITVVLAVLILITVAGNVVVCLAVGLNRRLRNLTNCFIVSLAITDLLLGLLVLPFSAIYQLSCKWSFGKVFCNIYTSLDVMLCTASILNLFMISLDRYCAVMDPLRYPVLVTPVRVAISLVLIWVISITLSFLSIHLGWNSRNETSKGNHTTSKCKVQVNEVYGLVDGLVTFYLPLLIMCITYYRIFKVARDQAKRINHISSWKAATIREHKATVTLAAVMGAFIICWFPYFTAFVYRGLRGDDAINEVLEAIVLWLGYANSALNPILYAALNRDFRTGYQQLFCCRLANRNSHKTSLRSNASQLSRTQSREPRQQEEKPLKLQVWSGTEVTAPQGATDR
T2 sequence (P34969 whole entry): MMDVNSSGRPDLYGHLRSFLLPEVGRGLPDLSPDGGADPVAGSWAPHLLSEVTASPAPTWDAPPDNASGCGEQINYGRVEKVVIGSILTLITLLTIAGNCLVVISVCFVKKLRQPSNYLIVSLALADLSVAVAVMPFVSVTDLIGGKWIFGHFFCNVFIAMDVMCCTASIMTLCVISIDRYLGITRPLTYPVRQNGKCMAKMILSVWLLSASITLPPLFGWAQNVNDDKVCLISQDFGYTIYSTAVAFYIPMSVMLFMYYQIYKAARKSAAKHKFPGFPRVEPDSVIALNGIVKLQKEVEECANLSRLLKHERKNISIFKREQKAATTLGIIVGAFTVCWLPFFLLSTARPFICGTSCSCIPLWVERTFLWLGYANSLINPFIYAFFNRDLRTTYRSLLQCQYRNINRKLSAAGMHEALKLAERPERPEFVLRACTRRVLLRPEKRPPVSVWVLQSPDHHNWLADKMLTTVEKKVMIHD
T5 sequence (P14416 whole entry): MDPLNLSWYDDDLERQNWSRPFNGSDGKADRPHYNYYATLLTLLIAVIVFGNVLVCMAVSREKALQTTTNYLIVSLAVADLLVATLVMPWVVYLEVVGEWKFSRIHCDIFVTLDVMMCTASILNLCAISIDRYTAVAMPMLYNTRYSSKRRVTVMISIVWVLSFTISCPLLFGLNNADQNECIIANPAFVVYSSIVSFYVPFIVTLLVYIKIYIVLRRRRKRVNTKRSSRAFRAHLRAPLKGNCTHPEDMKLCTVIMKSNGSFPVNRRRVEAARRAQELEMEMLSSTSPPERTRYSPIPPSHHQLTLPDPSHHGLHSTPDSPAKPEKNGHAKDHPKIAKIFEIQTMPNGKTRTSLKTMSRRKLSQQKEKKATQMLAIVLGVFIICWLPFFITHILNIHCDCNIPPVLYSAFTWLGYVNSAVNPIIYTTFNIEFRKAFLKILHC

With `COc1ccc(/C(C)=C/n2c3c(c4cc(Cl)ccc42)CCN(C)C3)cc1F` [Compound 122, 6-chloro-9-(2-(3-fluoro-4-methoxyphenyl)prop-1-enyl)-2-methyl-2,3,4,9-tetrahydro-1H-pyrido[3,4-b]indole], the inhibition at 1 µM turned out to be 13% in experiment [1]; 95% in experiment [2]; 102% in experiment [3]; 56% in experiment [4]; 21% in experiment [5]; 36% in experiment [6]. Further, the inhibition at 1 µM in experiment [7] turned out to be 95%.
On to `CCC1c2c(c3cc(Cl)ccc3n2/C=C(\C)c2ccc(F)c(F)c2)CCN1C` (stereo not drawn) [Compound 112, 6-chloro-9-(2-(3,4-difluorophenyl)prop-1-enyl)-1-ethyl-2-methyl-2,3,4,9-tetrahydro-1H-pyrido[3,4-b]indole], for which the inhibition at 1 µM in experiment [1] amounted to 33%; in experiment [2], 67%; in experiment [3] it was 94%; in experiment [4] it was 38%; in experiment [5], 12%; in experiment [6], 61%. The inhibition at 1 µM in experiment [7] was found to be 82%.
For `Cc1ccc2c(c1)c1c(n2C#Cc2ccc(Cl)cc2)C(C)N(C)CC1` (stereo not drawn) [Compound 172, 9-((4-chlorophenyl)ethynyl)-1,2,6-trimethyl-2,3,4,9-tetrahydro-1H-pyrido[3,4-b]indole], the inhibition at 1 µM stood at 11% in experiment [1]; 1% in experiment [2]; 100% in experiment [3]; 45% in experiment [4]; 1% in experiment [5]; 10% in experiment [6]. For the same compound, in experiment [7], the inhibition at 1 µM was 96%.
Turning to `C/C(=C\n1c2c(c3cc(Cl)ccc31)CCN(C)C2C)c1ccc(Cl)c(Cl)c1` (stereo not drawn) [Compound 115, 6-chloro-9-(2-(3,4-dichlorophenyl)prop-1-enyl)-1,2-dimethyl-2,3,4,9-tetrahydro-1H-pyrido[3,4-b]indole], the inhibition at 1 µM in experiment [1] amounted to 50%; in experiment [2] it was 74%; in experiment [3], 86%; in experiment [4], 71%; in experiment [5] it was 0%; in experiment [6] it was 40%. Moreover, in experiment [7], the inhibition at 1 µM is 85%.
For `C/C(=C\n1c2c(c3cc(Cl)ccc31)CCN(C)C2)c1ccc(F)c(F)c1` [Compound 110, 6-chloro-9-(2-(3,4-difluorophenyl)prop-1-enyl)-2-methyl-2,3,4,9-tetrahydro-1H-pyrido[3,4-b]indole], the inhibition at 1 µM turned out to be 25% in experiment [1]; 87% in experiment [2]; 97% in experiment [3]; 64% in experiment [4]; 10% in experiment [5]; 73% in experiment [6]. Further, the inhibition at 1 µM in experiment [7] was found to be 93%.
As to `C/C(=C\n1c2c(c3cc(C)ccc31)CCN(C)C2)c1ccc(Cl)c(Cl)c1` [Compound 113, 9-(2-(3,4-dichlorophenyl)prop-1-enyl)-2,6-dimethyl-2,3,4,9-tetrahydro-1H-pyrido[3,4-b]indole], the inhibition at 1 µM turned out to be 26% in experiment [1]; 84% in experiment [2]; 91% in experiment [3]; 81% in experiment [4]; 9% in experiment [5]; 49% in experiment [6]. Also, the inhibition at 1 µM in experiment [7] was 99%.
For `CCC1c2c(c3cc(Cl)ccc3n2C(=O)Cc2ccc(F)cc2)CCN1C` (stereo not drawn) [Compound 171], the inhibition at 1 µM in experiment [1] amounted to 15%; in experiment [2] it was 13%; in experiment [3], 92%; in experiment [4] it was 17%; in experiment [5] it was 5%; in experiment [6], 36%. Moreover, the inhibition at 1 µM in experiment [7] came to 80%.
As to `Cc1ccc2c(c1)c1c(n2C#Cc2ccc(Cl)cc2)CN(C)CC1` [Compound 130, 9-((4-chlorophenyl)ethynyl)-2,6-dimethyl-2,3,4,9-tetrahydro-1H-pyrido[3,4-b]indole], the inhibition at 1 µM in experiment [1] is 5%; in experiment [2], 22%; in experiment [3] it was 95%; in experiment [4], 51%; in experiment [5], -3%; in experiment [6], 7%. For the same compound, the inhibition at 1 µM in experiment [7] came out at 91%.
On to `CCC1c2c(c3cc(C)ccc3n2/C=C(\C)c2ccc(Cl)cc2Cl)CCN1C` (stereo not drawn) [Compound 170], for which the inhibition at 1 µM in experiment [1] came out at 27%; in experiment [2], 74%; in experiment [3], 98%; in experiment [4] it was 60%; in experiment [5], 1%; in experiment [6], 36%. For the same compound, the inhibition at 1 µM in experiment [7] was found to be 96%.
